Assay results from patent US5728736A, “Reduction of hair growth” (priority 1995, dated 1998).

Key:
[1] = test system: hair growth of hamster flank organs; test: Golden Syrian hamster assay (flank organ hair mass after topical application); format: in vivo; settings: for Treated (mg) hair mass: treated flank organ, mean ± SEM; for Percent Inhibition (mean ± SEM) of hair growth: vs vehicle treated side
Excerpt: Male intact Golden Syrian hamsters are considered acceptable models for human beard hair growth in that they display oval shaped flank organs, one of each side, each about 8 mm. in major diameter, which growth thick black and coarse hair similar to human beard hair. These organs produce hair in response to androgens in the hamster. To evaluate the effectiveness of a particular arginase inhibitor the flank organs of each of a group of hamsters are depilated by applying a thioglycolate based chemical depilatory (Surgex). To one organ of each animal 10 μl of vehicle alone once a day is applied, while to the other organ of each animal an equal amount of vehicle containing an arginase inhibitor is applied. After thirteen applications (one application per day for five days a week), the flank organs are shaved and the amount of recovered hair (hair mass) from each is weighed. Percent-reduction of hair growth is calculated by subtracting the hair mass (mg) value of the test compound treated side from the hair mass value of the vehicle treated side; the delta value obtained is then divided by the hair mass value of the vehicle treated side, and the resultant number is multiplied by 100.
The above-described assay will be referred to herein as the "Golden Syrian hamster" assay.

hair follicle arginase = test: In vitro assay for inhibitors of hair follicle arginase; format: biochemical; settings: compound 10 μM, hamster flank organ hair follicle extract, 5 minutes at 37° C., ornithine formation by HPLC
Description: Extracts of hair follicles were obtained by excising and sonicating hair follicles obtained from hamster flank organs. The hair follicles from the hamster flank organ were excised and sonicated in a 0.01M Tris-buffered solution, pH 7.5. The sonicated extracts were centrifuged at 12,000×g, and the supernatant was used to measure arginase activity. Final reaction volumes were achieved by using 90 μl of the follicle supernatant, which was mixed with 100 μl of the Tris buffer (with or without the inhibitor), and 10 μl of 20 mM arginine incubated for 5 minutes at 37° C. The enzyme reaction was stopped by separating the enzyme from the substrate with a 10,000 molecular weight cut off filter. The product formed, ornithine, was separated from the substrate arginine using reverse phase HPLC methodology. An aliquot of the reaction was used to generate 20 μl of the filtrate which was reacted with 20 μl of O-pthalaldehyde (OPA) reagent. This reagent rapidly reacts with all primary amino acids to form fluorescent adducts that are separated on a C18 column (15 cm×3.9 mm). The 40 μl of derivatized sample is injected into the HPLC column and eluted with a stepwise gradient starting at 100% Buffer A (0.024M sodium acetate, 0.024M sodium phosphate, pH 4.0/methanol/tetrahydrofuran in a ratio of 81:15:4) and ending in a 50/50 mixture of Buffer A and Buffer B (methanol/water/tetrahydrofuran in a ratio of 75:15:10). A fluorescent detector was used to monitor the amino acid peaks as they eluted off the column.

[2] = dose 10%, vehicle H2O, 13 applications
[3] = dose 10%, vehicle A, pH not given, 13 applications
[4] = dose 10%, vehicle A, pH 6.5, 13 applications
[5] = dose 7.5%, vehicle A, pH 3.5, 13 applications
[6] = dose 10%, vehicle B, pH 7.0, 13 applications

CC(C)(N)C(=O)O [α-Aminoisobutyric acid]
Treated (mg) hair mass [1, 2]: 1.96 ± 2.1 mg | Percent Inhibition (mean ± SEM) of hair growth [1, 2]: 34 ± 9 | % Inhibition of hair follicle arginase (hair follicle arginase): 27%

N=C(NO)NCCC[C@H](N)C(=O)O [N^-G -Hydroxy-L-arginine]
Treated (mg) hair mass [1, 3]: 0.97 ± .19 mg | Percent Inhibition (mean ± SEM) of hair growth [1, 3]: 66 ± 6 | % Inhibition of hair follicle arginase (hair follicle arginase): 98%

CCN=C=NCCCN(C)C [1-Ethyl-3-(3-dimethylaminopropyl)-carbodiimide]
Treated (mg) hair mass [1, 4]: 0.9 ± 0.9 mg | Percent Inhibition (mean ± SEM) of hair growth [1, 4]: 57 ± 5 | % Inhibition of hair follicle arginase (hair follicle arginase): 64%

Cc1ccc(S(=O)(=O)N[C@@H](CCCNC(=N)N)C(=O)O)cc1 [N-Tosyl-L-arginine]
Treated (mg) hair mass [1, 5]: 0.83 ± .13 mg | Percent Inhibition (mean ± SEM) of hair growth [1, 5]: 42 ± 13 | % Inhibition of hair follicle arginase (hair follicle arginase): 64%

CC(NC(CCCNC(=N)N)C(=O)O)C(=O)O (stereo not drawn) [Octopine]
Treated (mg) hair mass [1, 6]: 0.45 ± .07 mg | Percent Inhibition (mean ± SEM) of hair growth [1, 6]: 68 ± 6 | % Inhibition of hair follicle arginase (hair follicle arginase): 50%
